Test results: the supplement of paper PMC10307832

Columns and labels:
Test in all cases: relative viability (nuclei count vs DMSO), 5 days (fraction); higher = more cells survive
Omipalisib + Pictilisib = compound: COc1ncc(-c2ccc3nccc(-c4ccnnc4)c3c2)cc1NS(=O)(=O)c1ccc(F)cc1F [Omipalisib] + CS(=O)(=O)N1CCN(Cc2cc3nc(-c4cccc5[nH]ncc45)nc(N4CCOCC4)c3s2)CC1 [Pictilisib] (partner 1 µM)
Procedure, shortened: (§1)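 For relative viability, nuclei counts in treated wells were divided by those in vehicle wells. Lung cancer cell lines had been pin-tool dosed in 1536-well plates the day after seeding and cultured for 5 days, then fixed and stained in one step (final 0.05% Triton X-100, 1% formaldehyde, 1 ug/ml Hoechst) and imaged at 4×. Doses were one drug alone or a fixed anchor-drug dose plus five library-drug doses (not always all listed) in √10 steps, and values are duplicate-plate medians.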

Omipalisib + Linsitinib = compound: COc1ncc(-c2ccc3nccc(-c4ccnnc4)c3c2)cc1NS(=O)(=O)c1ccc(F)cc1F [Omipalisib] + C[C@]1(O)C[C@@H](c2nc(-c3ccc4ccc(-c5ccccc5)nc4c3)c3c(N)nccn32)C1 [Linsitinib] (partner 1 µM)
Procedure, shortened: as §1

Omipalisib + Dasatinib = compound: COc1ncc(-c2ccc3nccc(-c4ccnnc4)c3c2)cc1NS(=O)(=O)c1ccc(F)cc1F [Omipalisib] + Cc1nc(Nc2ncc(C(=O)Nc3c(C)cccc3Cl)s2)cc(N2CCN(CCO)CC2)n1 [Dasatinib] (partner 0.075 µM)
Procedure, shortened: as §1

Omipalisib + AZD7762 = compound: COc1ncc(-c2ccc3nccc(-c4ccnnc4)c3c2)cc1NS(=O)(=O)c1ccc(F)cc1F [Omipalisib] + NC(=O)Nc1cc(-c2cccc(F)c2)sc1C(=O)N[C@H]1CCCNC1 [AZD7762] (partner 0.2 µM)
Procedure, shortened: as §1

Omipalisib + Decitabine = compound: COc1ncc(-c2ccc3nccc(-c4ccnnc4)c3c2)cc1NS(=O)(=O)c1ccc(F)cc1F [Omipalisib] + Nc1ncn([C@H]2C[C@H](O)[C@@H](CO)O2)c(=O)n1 [Decitabine] (partner 2 µM)
Procedure, shortened: as §1

Omipalisib + Vorinostat = compound: COc1ncc(-c2ccc3nccc(-c4ccnnc4)c3c2)cc1NS(=O)(=O)c1ccc(F)cc1F [Omipalisib] + O=C(CCCCCCC(=O)Nc1ccccc1)NO [Vorinostat] (partner 1 µM)
Procedure, shortened: as §1

| Cell Line | relative viability (Omipalisib + Pictilisib; first compound 0.0003 µM) | relative viability (Omipalisib + Pictilisib; first compound 0.003 µM) | relative viability (Omipalisib + Pictilisib; first compound 0.03 µM) | relative viability (Omipalisib + Linsitinib; first compound 0.0003 µM) | relative viability (Omipalisib + Linsitinib; first compound 0.003 µM) | relative viability (Omipalisib + Linsitinib; first compound 0.03 µM) | relative viability (Omipalisib + Dasatinib; first compound 0.0003 µM) | relative viability (Omipalisib + Dasatinib; first compound 0.003 µM) | relative viability (Omipalisib + Dasatinib; first compound 0.03 µM) | relative viability (Omipalisib + AZD7762; first compound 0.0003 µM) | relative viability (Omipalisib + AZD7762; first compound 0.003 µM) | relative viability (Omipalisib + AZD7762; first compound 0.03 µM) | relative viability (Omipalisib + Decitabine; first compound 0.0003 µM) | relative viability (Omipalisib + Decitabine; first compound 0.003 µM) | relative viability (Omipalisib + Decitabine; first compound 0.03 µM) | relative viability (Omipalisib + Vorinostat; first compound 0.0003 µM) | relative viability (Omipalisib + Vorinostat; first compound 0.003 µM) | relative viability (Omipalisib + Vorinostat; first compound 0.03 µM) |
| --- | --- | --- | --- | --- | --- | --- | --- | --- | --- | --- | --- | --- | --- | --- | --- | --- | --- | --- |
| LK-2 | 0.446 | 0.306 | 0.445 | 0.439 | 0.412 | 0.331 | 0.231 | 0.151 | 0.169 | 0.382 | 0.148 | 0.134 | 0.235 | 0.201 | 0.147 | 0.276 | 0.18 | 0.154 |
| NCI-H1792 | 0.281 | 0.278 | 0.129 | 0.417 | 0.441 | 0.164 | 0.566 | 0.521 | 0.21 | 0.467 | 0.347 | 0.165 | 0.428 | 0.37 | 0.101 |  |  |  |
| NCI-H2347 | 0.682 | 0.612 | 0.449 | 0.892 | 0.947 | 0.61 | 0.286 | 0.253 | 0.26 | 0.843 | 0.529 | 0.375 | 0.538 | 0.523 | 0.464 | 0.638 | 0.475 | 0.368 |
| LOU-NH91 | 0.511 | 0.487 | 0.441 | 0.876 | 0.717 | 0.512 | 0.521 | 0.381 | 0.355 | 0.772 | 0.566 | 0.515 | 0.857 | 0.747 | 0.665 | 1.02 | 0.679 | 0.582 |
| NCI-H1355 | 0.499 | 0.295 | 0.297 | 0.737 | 0.584 | 0.358 | 0.596 | 0.402 | 0.307 | 0.699 | 0.571 | 0.358 | 0.366 | 0.326 | 0.242 | 0.646 | 0.396 | 0.232 |
